In PMC8277129, “Bioconcentration of Several Series of Cationic Surfactants in Rainbow Trout” (Environmental Science & Technology, 2021):
Several values for one entry are separate records, joined by “and”; a condition that tells them apart may be missing. Identical values can stand only once. Like-named read-outs stand apart in the source and are kept apart here. Marks after values point to notes of the source that are not given here.

How the values were obtained:
[1] = Membrane-water partition coefficient of the charged form (DMLW,C); format: physicochemical; settings: extrapolated from Timmer and Droge (2017)
Method: Table S3: Test chemical properties
Abbr. pKa$ Log DOC§ Log DMLW,C# SMILES
$ pKa values derived/reported for different alkylamine type analogues. The selected value is expected to be independent of chain length for all longer chain homologues, using a weighted value obtained from the different sources with more focus on experimental data:
Algorithm / simulated data Experimental reference data (25 °C)
Chem ACD/ COSMO- selected
(https://echa.europa.eu/registration-dossier/-

[2] = test system: juvenile rainbow trout (Oncorhynchus mykiss); assay: Bioconcentration (BCF) experiment based on OECD 305, aqueous exposure to surfactant mixtures; format: in vivo; settings: for uptake rate constant (kU): 14 d exposure, 28 d depuration; for uptake rate constant (kU) / BCF (kU/kT) / measured total elimination rate constant (kT): whole fish; for factor by which BCF is lower for the QAC than for the tertiary amine with the same chain length: pH 7.6, Q10 vs T10, Q14 vs T14
Method: (§1) Juvenile rainbow trout were purchased from EM lax in Västervik, Sweden, and held in the aquaria facility for one month prior to starting the experiment on August 28, 2018. Ethical approval for the experiments was obtained from Stockholm’s djurförsöksetiska nämnd (decision 9967–2017). The experiment was conducted in six 350 L fiberglass aquaria with a water renewal rate of 1.5 L min^–1 corresponding to a turnover time of […]. The water temperature and the air temperature in the aquaria room were 10 °C. The lighting was dim and programmed on a 12 h light/12 h dark cycle.
(§2) Three BCF experiments were conducted, one each for MIX1 and MIX2 at pH ∼7.6 (denoted MIX1 and MIX2 in the following), and one for MIX1 at pH ∼6.2 (MIX1pH). Each experiment consisted of a 14 d exposure phase and a 28 d depuration phase. There were also two control aquaria where unexposed fish were kept, one at pH 7.6 and one at pH 6.2. For the pH 6.2 aquaria, a 20% v:v formic acid solution was pumped into a premixing basin where it was mixed with the inflowing water before entering the aquarium. pH sensors monitored pH in the premixing basin and the aquarium. The pH for the MIX1 and MIX2 experiments was governed by the pH of the water supply. Water samples were collected at 8 time points during each experiment for the determination of pH and alkalinity. Water samples were collected daily during the exposure phase for determination of total organic carbon (TOC), which was measured with NDIR detection after acidification, purging and high-temperature catalytic combustion (Shimadzu TOC-L).
(§3) For the exposure phase, a methanol solution of the test chemical mixture was infused continuously at 4.0 μL min^–1 into the water inflow of the aquarium using a syringe pump. The target concentrations of the chemicals in water ranged from 2.5 to 100 μg L^–1 (Table 1). They were selected to be as low as possible to minimize the risk of toxic effects while still being high enough to enable collection of high-quality data, building on the results of the tissue distribution experiment.[32] The syringe pump was started in an aquarium containing no fish. After 16 h to allow the concentrations to stabilize, ∼80 rainbow trout were transferred to the aquarium. Over the following 14 d water samples were collected and fish were sacrificed according to the schedule in Table S5. The remaining fish were then transferred to a second aquarium that received water without chemical addition. Over the following 28 d further water samples were collected and fish were sacrificed (Table S5).
(§4) At each fish sampling, 4–6 fish were sacrificed. Fish were also sampled periodically from the control aquaria. Following stunning and severance of the spinal cord, the fish were placed in a polyethylene bag, weighed, and immediately frozen at −20 °C. The median fish weight at sacrifice was 10.94 g, with a 25th and 75th percentile of 8.43 and 13.58 g, respectively.
(§5) Three fish from each time point were prioritized for analysis based on proximity to the median fish weight. Each fish was semithawed, cut into 3–4 pieces, and homogenized with an Ultra-Turrax device. 150 mg of the homogenate was transferred to a preweighed 13 mL polypropylene tube, centrifuged to a pellet, and weighed. 50 μL of methanol was added and the prepared aliquot was frozen. For extraction internal standard solution (isotope labeled standards of Q10 (D21), Q14 (D29), and P16 (D33)), 3 mL of methanol and 3 steel balls (3.2 mm diameter) were added to the prepared aliquot. This mixture was mixed in a bullet blender for 1 min, and then placed in an ultrasound bath at 50 °C for 60 min. Following centrifugation, the supernatant was decanted and the extraction was repeated. The extracts were combined and a portion corresponding to 25–50 mg homogenate was cleaned up on a weak cationic exchange SPE column (WCX, 60 mg) as described elsewhere.[32] […]

[3] = as above; format: in vivo, Oncorhynchus mykiss; settings: pH 7.6 (MIX1, MIX2); whole fish; read-out: measured total elimination rate constant (kT) (converted)
Method: as §1, §2, §3, §4, §5

[4] = parameters: method as in Perrin 1965, SRC, REACH, Perrin 1972, Hall 1957; settings: ref Perrin 1965, SRC, REACH, Perrin 1972, Hall 1957, cited from earlier work; for pKa used (selected value): selected per amine type, weighted from simulated and experimental analogue data; for pKa, experimental reference data: 25 °C
[5] = test system: gills of rainbow trout; assay: Mechanistic one-box mass balance model of gill uptake and elimination; settings: for predicted gill elimination rate constant eq 1 (k2): from measured kU and modeled αW, αB, DFW
From the text: To gain more mechanistic insight into the results, we formulated a simple one-box mass balance model of chemical bioconcentration in fish that considered diffusive uptake and elimination across the gills as well as biotransformation.[33] The flow of water across the gills and the flow of blood through the gills were modeled as perfusion limited resistances that constrain gill uptake and elimination. […] Consequently, these resistances are unknowns. Ion trapping effects caused by differences in pH between water at the gill surface and blood in the gills are considered, drawing on previous work on the uptake and elimination of ionizable organic chemicals across the gills of rainbow trout.[22],[23] Partitioning of the chemical from the dissolved phase into blood and into whole fish was calculated as the product of the membrane lipid–water distribution ratio (DMLW,T, including partitioning of both the neutral and the charged forms) and the fraction of membrane lipid in blood and whole fish. A detailed description of the model is provided in the SI (Text S3).
The contribution of the water perfusion and blood perfusion resistances were compared with the overall resistance for transport across the gills from water to blood (RW→B), which was calculated from the measured kU according to equation S4.3. […] For all of the other chemicals the blood resistance is insignificant compared to the overall resistance.
The rate constant for elimination across the gills, k2, can be defined as follows: [drawing 1] 1 where αB and αW are the neutral fractions of the chemical in the blood and in the water at the gill surface, respectively, and DFW is the fish-water distribution ratio of the chemical at the pH of blood (8.1) (see Text S3). Using the measured kU and the values of αW, αB, and DFW estimated for the model, k2 was calculated (Table 2).

[6] = ref Timmer and Droge (2017); cited from earlier work
[7] = parameters: method as in REACH dossier; settings: aqueous; ref REACH dossier; cited from earlier work

CCCCCCCCCCCCCN [P13, Tridecylamine]
Log DMLW,C (membrane-water partition coefficient of the charged form) [1]: 6.16
uptake rate constant (kU) ([2]; pH 7.6 (MIX1, MIX2), 10 °C): 4.8 L kg^–1 h^–1
BCF (kU/kT) ([2]; pH 7.6 (MIX1, MIX2)): 1390 L kg^–1
k el [3]: 9.44e-07 s⁻¹
pKa used (selected value) [4]: C13NH2 (10.6)
factor by which k2 was less than kT [5]: ~10
k2/kT ([5]; pH 7.6 (MIX1, MIX2)): 0.17
predicted gill elimination rate constant eq 1 (k2) ([5]; pH 7.6 (MIX1, MIX2)): 0.0006 h^–1

CCCCCCCCCC[N+](C)(C)C [Q10, N,N,N-trimethyl-1-decylammonium]
BCF (kU/kT) ([2]; pH 7.6 (MIX1, MIX2)): <0.2 ^c L kg^–1
factor by which BCF is lower for the QAC than for the tertiary amine with the same chain length [2]: > 670
Log DMLW,C (membrane-water partition coefficient of the charged form) [6]: 3.34

CCCCCCCCCCCCCC[N+](C)(C)C [Q14, N,N,N-trimethyl-1-tetradecylammonium]
initial rapid sorption as share of the cumulative uptake over 14 d ([2]; 14 d exposure phase): < 5%
factor by which BCF is lower at pH 6.2 than at pH 7.6 ([2]; MIX1 vs MIX1pH): no influence of pH on BCF
factor by which kU is lower at pH 6.2 than at pH 7.6 ([2]; MIX1 vs MIX1pH): the same
uptake rate constant (kU) ([2]; pH 6.2 (MIX1pH)): 0.121 L kg^–1 h^–1
BCF (kU/kT) ([2]; pH 6.2 (MIX1pH)): 55 L kg^–1
measured total elimination rate constant (kT) ([2]; pH 6.2 (MIX1pH)): 0.0022 h^–1
uptake rate constant (kU) ([2]; pH 7.6 (MIX1, MIX2), 10 °C): 0.104 L kg^–1 h^–1
BCF (kU/kT) ([2]; pH 7.6 (MIX1, MIX2)): 51 L kg^–1
measured total elimination rate constant (kT) ([2]; pH 7.6 (MIX1, MIX2)): 0.0020 h^–1
factor by which BCF is lower for the QAC than for the tertiary amine with the same chain length [2]: 160
Log DMLW,C (membrane-water partition coefficient of the charged form) [6]: 5.46

CCCCCCCCCCN(C)C [T10, N,N-dimethyldecylamine]
factor by which BCF is lower at pH 6.2 than at pH 7.6 ([2]; MIX1 vs MIX1pH): 17
factor by which kT is greater at pH 6.2 than at pH 7.6 ([2]; MIX1 vs MIX1pH): 1.7
factor by which kU is lower at pH 6.2 than at pH 7.6 ([2]; MIX1 vs MIX1pH): 10
uptake rate constant (kU) ([2]; pH 6.2 (MIX1pH)): 1.02 L kg^–1 h^–1
BCF (kU/kT) ([2]; pH 6.2 (MIX1pH)): 7.9 L kg^–1
measured total elimination rate constant (kT) ([2]; pH 6.2 (MIX1pH)): 0.129 h^–1
uptake rate constant (kU) ([2]; pH 7.6 (MIX1, MIX2), 10 °C): 9.9 L kg^–1 h^–1
BCF (kU/kT) ([2]; pH 7.6 (MIX1, MIX2)): 134 L kg^–1
measured total elimination rate constant (kT) ([2]; pH 7.6 (MIX1, MIX2)): 0.074 h^–1
pKa used (selected value) [4]: C10N(CH3)2 (10.0)
Log DMLW,C (membrane-water partition coefficient of the charged form) [6]: 3.65
k2/kT ([5]; pH 6.2 (MIX1pH)): 4.1
predicted gill elimination rate constant eq 1 (k2) ([5]; pH 6.2 (MIX1pH)): 0.53 h^–1
factor by which k2 exceeded kT ([5]; pH 6.2 experiment): 4
factor by which k2 exceeded kT ([5]; pH 7.6): ~5
k2/kT ([5]; pH 7.6 (MIX1, MIX2)): 5.0
predicted gill elimination rate constant eq 1 (k2) ([5]; pH 7.6 (MIX1, MIX2)): 0.37 h^–1

CCCCCCCCCCCCCC[N+](C)(C)Cc1ccccc1.[Cl-] [benzyldimethyltetradecylazanium chloride]
SURFACE TENSION [7]: 34.5 mN/m

CCCCCCCCCCCCCCCCCCN(C)C [dimethyl(octadecyl)amine]
SURFACE TENSION [7]: 32.2 mN/m

CCCCCCCCCCCCN [dodecan-1-amine]
SURFACE TENSION [7]: 23.1 mN/m

CCCCCCN [hexylamine, reference compound]
pKa, experimental reference data [4]: 10.64

CCCCCCCCCCCCCCCCCCN [octadecan-1-amine]
SURFACE TENSION [7]: 23.9 mN/m

CCCCCCCCN [octan-1-amine]
SURFACE TENSION [7]: 44.2 mN/m

CCCCCCCCN [octylamine, reference compound]
pKa, experimental reference data [4]: 10.7 and 10.6
